Measurements: US5616615A, “Enaminone esters” (priority 1995, dated 1997)
Read-outs that look alike come from different tables or passages of the source.

What was measured:
in vivo [1] = settings: rat, po, 50 mg/kg
Description: (§1) This oral screen is designated as phase VI.

[2] = system: Subcutaneous Pentylenetetrazol seizure; assay: sc Met subcutaneous pentylenetetrazol (Metrazol) seizure test, mice; assay type: in vivo; settings: Mus musculus, sc, read-out: scMet, animals protected/tested (converted)
in vivo [3] = settings: rat, ip
Procedure: (§3) The rotorod test is used to elevate neurotoxicity. The animal is placed on a 1 inch diameter knurled plastic rod rotating at 6 rpm. […] Neurologic toxicity is defined as the failure of the animal to remain on the rod for 1 minute and the results are expressed as the number of animals protected/the number of animals tested.
(§4) The toxicity evaluation for the commercial agents as previously indicated was based on the onset of ataxia.

[4] = system: Maximal electroshock seizures; assay: Phase VI oral MES test, rats; assay type: in vivo; settings: Rattus norvegicus, oral, 50 mg/kg, read-out: MES, animals protected/tested (converted)
Description: (§2) Maximal electroshock seizures are elicited with a 60-cycle alternating current of 50 mA intensity (5-7 times that necessary to elicit minimal electroshock seizures) delivered via corneal electrodes for 0.2 seconds. A drop of 0.9% saline is instilled in the eye prior to application of the electrodes in order to […].
as §1

seizures = assay: Anticonvulsant evaluation (ASP phase I / overall); assay type: in vivo, mice; settings: Mus musculus, ip; Phase I; read-out: ASP Classification
Procedure, shortened: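 Male Carworth Farms #1 mice; maximal electroshock seizures elicited by 60-cycle AC, 50 mA, 0.2 s via corneal electrodes after a drop of 0.9% saline in the eye. Animals observed for 30 minutes.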

[5] = system: Maximal electroshock seizures; assay: MES maximal electroshock seizure test, mice ip; assay type: in vivo; settings: Mus musculus, ip; for responders at 100 mg/kg: read-out: MES, animals protected/tested (converted); for responders at 300 mg/kg: read-out: MES, animals protected/tested
Procedure: Three tests were performed:
1. MES--Electroshock Seizure Test
as §2

electroshock seizures = assay: MES maximal electroshock test, rats ip; assay type: in vivo; settings: for ED50: Rattus norvegicus, ip
Description: as §2

Procedure for Neurotoxicity, rats ip: as §3, §4

## COC(=O)C1C(=O)C=C(Nc2ccc(C(F)(F)F)cc2)CC1C (centres unmarked) [Compound 115]
In vivo [1]
  Tox, animals toxic/tested: 0/4
[2]; 0.5 h, 30 min
  responders at 100 mg/kg: 0%
  responders at 300 mg/kg: 40%
[2]; 4 h, 4 h
  responders at 100 mg/kg: 0%
  responders at 300 mg/kg: 0%
Neurotoxicity, rats ip; 8 mg/kg, 0.25-24 h
  Tox, animals exhibiting neurotoxicity/tested: 0/2
Neurotoxicity, rats ip; 16 mg/kg, 0.25-24 h
  Tox, animals exhibiting neurotoxicity/tested: 0/2
Neurotoxicity, rats ip; 32 mg/kg, 0.25-24 h
  Tox, animals exhibiting neurotoxicity/tested: 0/2
Neurotoxicity, rats ip; 64 mg/kg, 0.25-24 h
  Tox, animals exhibiting neurotoxicity/tested: 0.2
In vivo [3]
  TD50: > 64 mg/kg
  selectivity ratio: > 21.7
[4]; 0.5 h, 0.50 h
  responders at 50 mg/kg: 100%
[4]; 0.25 h
  responders at 50 mg/kg: 75%
[4]; 1.00 h
  responders at 50 mg/kg: 100%
[4]; 2.00 h
  responders at 50 mg/kg: 100%
[4]; 4.00 h
  responders at 50 mg/kg: 100%
seizures
  minimal effective dose: < 100 mg/kg
[5]; 0.5 h, 30 min
  responders at 100 mg/kg: 100%
  responders at 300 mg/kg: 100%
[5]; 4 h, 4 h
  responders at 100 mg/kg: 33.3%
  responders at 300 mg/kg: 100%
Electroshock seizures; 1.0 mg/kg, 0.50 h
  MES, animals protected/tested: 0/8
Electroshock seizures; 2.0 mg/kg, 0.50 h (Table VII)
  MES, animals protected/tested: 1/4
Electroshock seizures; 2.0 mg/kg, 0.50 h (Table VIII)
  MES, animals protected/tested: 3/8
Electroshock seizures; 2.0 mg/kg, 1.00 h
  MES, animals protected/tested: 1/4
Electroshock seizures; 3.0 mg/kg, 0.50 h
  MES, animals protected/tested: 3/8
Electroshock seizures; 3.5 mg/kg, 0.50 h
  MES, animals protected/tested: 4/8
Electroshock seizures; 4.0 mg/kg, 0.25 h
  MES, animals protected/tested: 2/4
Electroshock seizures; 4.0 mg/kg, 0.50 h (Table VII)
  MES, animals protected/tested: 3/4
Electroshock seizures; 4.0 mg/kg, 0.50 h (Table VIII)
  MES, animals protected/tested: 7/8
Electroshock seizures; 4.0 mg/kg, 1.00 h
  MES, animals protected/tested: 3/4
Electroshock seizures; 4.0 mg/kg, 2.00 h
  MES, animals protected/tested: 2/4
Electroshock seizures; 0.5 h, 0.50 h
  ED50: 2.95 mg/kg

## COC(=O)C1C(=O)C=C(Nc2ccc(Br)cc2)CC1C (centres unmarked) [Compound 113]
In vivo [1]
  Tox, animals toxic/tested: 0/4
[2]; 0.5 h, 30 min
  responders at 100 mg/kg: 0%
  responders at 300 mg/kg: 40%
[2]; 4 h, 4 h
  responders at 100 mg/kg: 0%
  responders at 300 mg/kg: 0%
Neurotoxicity, rats ip; 100 mg/kg, 2.00 h (Table VIII)
  Tox, animals exhibiting neurotoxicity/tested: 0/8
Neurotoxicity, rats ip; 180 mg/kg, 2.00 h (Table VII)
  Tox, animals exhibiting neurotoxicity/tested: 2/4
Neurotoxicity, rats ip; 180 mg/kg, 2.00 h (Table VIII)
  Tox, animals exhibiting neurotoxicity/tested: 2/8
Neurotoxicity, rats ip; 180 mg/kg, 4.00 h
  Tox, animals exhibiting neurotoxicity/tested: 1/8
Neurotoxicity, rats ip; 220 mg/kg, 0.25 h
  Tox, animals exhibiting neurotoxicity/tested: 0/8
Neurotoxicity, rats ip; 220 mg/kg, 0.50 h
  Tox, animals exhibiting neurotoxicity/tested: 0/8
Neurotoxicity, rats ip; 220 mg/kg, 1.00 h
  Tox, animals exhibiting neurotoxicity/tested: 1/8
Neurotoxicity, rats ip; 220 mg/kg, 2.00 h
  Tox, animals exhibiting neurotoxicity/tested: 4/8
Neurotoxicity, rats ip; 220 mg/kg, 2.00 h (Table VIII)
  Tox, animals exhibiting neurotoxicity/tested: 4/8
Neurotoxicity, rats ip; 220 mg/kg, 6.00 h
  Tox, animals exhibiting neurotoxicity/tested: 0/8
Neurotoxicity, rats ip; 220 mg/kg, 24.00 h
  Tox, animals exhibiting neurotoxicity/tested: 0/8
Neurotoxicity, rats ip; 440 mg/kg, 2.00 h
  Tox, animals exhibiting neurotoxicity/tested: 6/8
In vivo [3]
  TD50 at 2 h: 270 mg/kg
  selectivity ratio: 67.4
[4]; 0.5 h, 0.50 h
  responders at 50 mg/kg: 100%
[4]; 0.25 h
  responders at 50 mg/kg: 75%
[4]; 1.00 h
  responders at 50 mg/kg: 100%
[4]; 2.00 h
  responders at 50 mg/kg: 100%
[4]; 4.00 h
  responders at 50 mg/kg: 100%
seizures
  minimal effective dose: < 100 mg/kg
[5]; 0.5 h, 30 min
  responders at 100 mg/kg: 100%
  responders at 300 mg/kg: 100%
[5]; 4 h, 4 h
  responders at 100 mg/kg: 100%
  responders at 300 mg/kg: 100%
Electroshock seizures; 1.2 mg/kg, 0.25 h
  MES, animals protected/tested: 0/8
Electroshock seizures; 3.6 mg/kg, 0.25 h
  MES, animals protected/tested: 5/8
Electroshock seizures; 4.5 mg/kg, 0.25 h
  MES, animals protected/tested: 3/8
Electroshock seizures; 4.8 mg/kg, 0.25 h
  MES, animals protected/tested: 3/4
Electroshock seizures; 4.8 mg/kg, 0.50 h
  MES, animals protected/tested: 3/4
Electroshock seizures; 4.8 mg/kg, 1.00 h
  MES, animals protected/tested: 2/4
Electroshock seizures; 6.0 mg/kg, 0.25 h
  MES, animals protected/tested: 3/4
Electroshock seizures; 6.0 mg/kg, 0.50 h
  MES, animals protected/tested: 2/4
Electroshock seizures; 6.0 mg/kg, 1.00 h
  MES, animals protected/tested: 3/4
Electroshock seizures; 6.0 mg/kg, 2.00 h
  MES, animals protected/tested: 0/4
Electroshock seizures; 7.0 mg/kg, 0.25 h
  MES, animals protected/tested: 7/8
Electroshock seizures; 0.25 h
  ED50: 4 mg/kg
